Key:
[1] = target: Prothrombin (Bos taurus, UniProt P00735); test: Inhibition of bovine thrombin using Tos-Gly-Pro-Arg-AMC as substrate by fluorescence assay
[2] = target: Coagulation factor X (Homo sapiens, UniProt P00742); test: Inhibition of human factor Xa using Mes-Darg-Pro-Arg-AMC as flurogenic substrate by fluorescence assay
[3] = target: Plasminogen (Homo sapiens, UniProt P00747); test: Inhibition pf human plasmin using Mes-Darg-Phe-Arg-AMC as substrate by fluorescence assay

Measured: Ki

Sequence of Plasminogen (P00747 97-580 limits assumed): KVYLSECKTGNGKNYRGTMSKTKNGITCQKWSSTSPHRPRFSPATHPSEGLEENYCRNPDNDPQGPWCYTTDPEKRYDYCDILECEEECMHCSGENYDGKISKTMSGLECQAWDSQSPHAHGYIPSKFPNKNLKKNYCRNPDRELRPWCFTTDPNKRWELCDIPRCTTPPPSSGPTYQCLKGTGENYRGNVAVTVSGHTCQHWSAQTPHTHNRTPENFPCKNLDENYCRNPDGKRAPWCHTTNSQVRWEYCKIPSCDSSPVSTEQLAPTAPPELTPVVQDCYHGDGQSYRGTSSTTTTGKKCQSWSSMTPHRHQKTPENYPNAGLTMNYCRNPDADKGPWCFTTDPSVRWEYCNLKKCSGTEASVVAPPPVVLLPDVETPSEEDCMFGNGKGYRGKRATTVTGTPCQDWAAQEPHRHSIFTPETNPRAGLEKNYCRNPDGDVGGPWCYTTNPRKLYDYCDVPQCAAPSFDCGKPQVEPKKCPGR
Sequence of Plasminogen (P00747 581-810 limits assumed): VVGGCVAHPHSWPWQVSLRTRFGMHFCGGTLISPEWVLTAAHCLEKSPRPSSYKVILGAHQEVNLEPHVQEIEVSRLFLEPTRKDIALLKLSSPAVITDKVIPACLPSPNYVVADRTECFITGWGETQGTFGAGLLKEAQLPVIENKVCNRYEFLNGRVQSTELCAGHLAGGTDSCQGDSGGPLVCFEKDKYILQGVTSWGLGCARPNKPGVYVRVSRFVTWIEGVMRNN
Sequence of Coagulation factor X (P00742 41-179 limits assumed): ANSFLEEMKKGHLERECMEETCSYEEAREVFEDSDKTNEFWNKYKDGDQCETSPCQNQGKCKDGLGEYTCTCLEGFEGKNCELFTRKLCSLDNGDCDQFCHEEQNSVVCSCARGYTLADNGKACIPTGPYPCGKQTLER
Sequence of Coagulation factor X (P00742 235-488 limits assumed): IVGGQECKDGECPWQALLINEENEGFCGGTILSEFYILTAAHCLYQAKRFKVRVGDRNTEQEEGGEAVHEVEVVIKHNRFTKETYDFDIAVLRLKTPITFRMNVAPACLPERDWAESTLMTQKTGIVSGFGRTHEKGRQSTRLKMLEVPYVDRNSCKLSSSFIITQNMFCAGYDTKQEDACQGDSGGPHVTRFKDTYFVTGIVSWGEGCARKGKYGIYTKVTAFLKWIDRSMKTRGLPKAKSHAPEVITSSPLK

CC(C)(C)[C@H](NC(=O)[C@H](CCONC(=N)N)NC(=O)Cc1ccc(CNC(=N)N)cc1)C(=O)N[C@@H](CCONC(=N)N)C(=O)NCc1ccc(C(=N)N)cc1
> 3000 nM: [1] | [2] | [3]
